# Article PMC2375285, “Inhibition of all-TRANS-retinoic acid metabolism by R116010 induces antitumour activity” (British Journal of Cancer, 2002)
# What was measured:
# [1] = system: Lewis lung (3LL) tumours; set-up: method as in Smets et al, manuscript in preparation; settings: in vivo; ref Smets et al, manuscript in preparation; cited from earlier work
# [2] = in vivo; settings: mouse, po
# Method: Cells (1.5×10^6) were injected intraperitoneally in syngeneic A/J mice. […] Each group consisted of 10 animals for experiments with R116010 and of six animals for experiments with RA. All treatments were performed by oral gavage. […] The control groups were given the vehicle 20% 4-OH-β-cyclodextrine in sterile saline. Mice were daily examined for adverse drug effects. At the end of the experiments, subcutaneous tumours were excised 24 h after the last treatment and weighed to validate the antitumoural effects of the treatment.
# Data are represented as box plots showing median group value, 25/75th percentile, 10/90th percentile and outliers. Groups were statistically compared to the vehicle-treated groups using the Mann–Whitney U-test. Significance was defined at the level of P<0.05.
# [3] = biological target: T1, 17,20-lyase (CYP17) (Rattus norvegicus, UniProt P11715); experiment: 17,20-lyase in rat testicular S10 fraction; assay type: biochemical
# T1 construct: 17,20-lyase (CYP17) in rat testicular S10 fractions; from tissue; host or cells: rat testis, S10 fraction
# T1 sequence (P11715 1-507): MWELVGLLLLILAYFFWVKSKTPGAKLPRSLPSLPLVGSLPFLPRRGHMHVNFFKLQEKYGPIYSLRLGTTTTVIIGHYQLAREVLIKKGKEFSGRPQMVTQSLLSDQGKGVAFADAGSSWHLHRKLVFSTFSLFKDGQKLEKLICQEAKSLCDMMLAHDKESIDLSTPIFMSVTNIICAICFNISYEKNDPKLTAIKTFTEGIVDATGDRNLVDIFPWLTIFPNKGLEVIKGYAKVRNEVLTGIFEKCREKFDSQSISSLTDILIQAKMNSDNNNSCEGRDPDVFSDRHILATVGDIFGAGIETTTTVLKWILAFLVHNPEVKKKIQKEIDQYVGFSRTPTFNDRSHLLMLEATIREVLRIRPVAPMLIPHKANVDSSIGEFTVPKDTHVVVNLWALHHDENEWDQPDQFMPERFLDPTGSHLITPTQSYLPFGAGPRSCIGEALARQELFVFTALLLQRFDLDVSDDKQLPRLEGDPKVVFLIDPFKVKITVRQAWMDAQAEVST
# Method: Metabolism of RA by CYP26A1 was measured in microsomes of T47D human breast cancer cells that were pretreated for 16 h with 1 μM RA to induce RA metabolism. Microsomes were prepared exactly as described by [Han and Choi (1996)], and RA metabolism was measured as described by [Van Wauwe et al (1994)]. The conversion of androstenedione to estrone by aromatase (CYP19) in human placental microsomes, the conversion of 17-hydroxy-20-dihydroprogesterone to testosterone by 17,20-lyase (CYP17) in rat testicular S10 fractions, and the 2α-, 7α-, 6β-, and 16β-hydroxylation of testosterone (CYP2C11, CYP2A1, CYP3A, CYP2B1/2) in rat liver microsomes were carried out as described ([Vanden Bossche et al, 1990]).
# [4] = system: RA metabolism in intact T47D cells; experiment: Microcolumn assay for RA metabolism in intact T47D cells; assay type: cell-based, human
# Method: RA metabolism was quantitatively determined using the microcolumn assay as described previously ([Krekels et al, 1997]). […] Cells were then washed twice with culture medium, harvested and resuspended at 4×10^6 cells ml^−1. An aliquot of this cell suspension (450 μl) was incubated for 90 min in the presence of 0.1 μM [11, 12-^3H(N)]RA, after which 2 ml acetonitrile was added. After centrifugation for 10 min at 780 g, the resulting deproteinized supernatant was acidified with 2.5 ml of 40 mM acetic acid and applied to a 3 ml C18 Bond Elut LRC column (Varian, Harbor City, CA, USA; pretreated with 4 ml distilled water) under a vacuum of 127 mmHg using VAC ELUT SPS-24 and the effluent was collected. The column was eluted with 1 ml 40% acetonitrile and the effluent was collected in the same vial. Radioactivity in the collected effluent, containing the polar metabolites, was determined in a Packard Tri-carb 4530 liquid scintillation analyzer. Optiphase ‘Hi Safe II’ (Wallac, Milton Keynes, UK) was used as a scintillator. Data are presented as mean±s.d. of three or four independent experiments. The IC50-values were calculated by non-linear regression analysis using SigmaPlot 4.01 software.
# [5] = system: androgen-independent rat prostatic Dunning R3327/PIF-1 carcinoma cells; set-up: method as in Van Ginckel et al, 1999; settings: in vivo; ref Van Ginckel et al, 1999; cited from earlier work
# [6] = Blood hormone levels in rats treated with R116010; assay type: in vivo; settings: 10 mg kg^−1 R116010
# [7] = system: CYP2B1/2; experiment: Testosterone 16β-hydroxylase in rat liver microsomes; assay type: biochemical; settings: probe testosterone (16β-hydroxylation)
# Method: (§1) The conversion of androstenedione to estrone by aromatase (CYP19) in human placental microsomes, the conversion of 17-hydroxy-20-dihydroprogesterone to testosterone by 17,20-lyase (CYP17) in rat testicular S10 fractions, and the 2α-, 7α-, 6β-, and 16β-hydroxylation of testosterone (CYP2C11, CYP2A1, CYP3A, CYP2B1/2) in rat liver microsomes were carried out as described ([Vanden Bossche et al, 1990]).
# [8] = biological target: T2, CYP2A1 (Rattus norvegicus, UniProt P11711); experiment: Testosterone 7α-hydroxylase in rat liver microsomes; assay type: biochemical
# T2 construct: hydroxylation of testosterone (CYP2C11, CYP2A1, CYP3A, CYP2B1/2) in rat liver microsomes; from tissue; host or cells: rat liver, microsomes
# T2 sequence (P11711 1-492): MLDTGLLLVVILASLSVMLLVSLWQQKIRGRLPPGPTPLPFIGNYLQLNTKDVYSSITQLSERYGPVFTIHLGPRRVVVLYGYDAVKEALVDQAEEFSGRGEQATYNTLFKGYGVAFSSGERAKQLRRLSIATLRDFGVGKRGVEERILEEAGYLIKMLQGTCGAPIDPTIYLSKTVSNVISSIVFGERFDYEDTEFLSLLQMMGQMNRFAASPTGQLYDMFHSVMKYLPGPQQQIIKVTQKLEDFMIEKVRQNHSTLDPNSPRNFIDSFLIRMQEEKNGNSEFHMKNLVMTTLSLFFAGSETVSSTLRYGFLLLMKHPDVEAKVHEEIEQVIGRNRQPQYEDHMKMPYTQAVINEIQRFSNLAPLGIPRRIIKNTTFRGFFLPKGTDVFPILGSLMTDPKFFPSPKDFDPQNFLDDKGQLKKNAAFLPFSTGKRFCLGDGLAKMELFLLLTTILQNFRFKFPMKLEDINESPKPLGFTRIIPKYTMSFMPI
# Method: as §1
# [9] = biological target: T3, aromatase (CYP19) (Homo sapiens, UniProt P11511); experiment: Aromatase, conversion of androstenedione to estrone in human placental microsomes; assay type: biochemical
# T3 construct: aromatase (CYP19) in human placental microsomes; from tissue; host or cells: human placenta, microsomes
# T3 sequence (P11511 1-503): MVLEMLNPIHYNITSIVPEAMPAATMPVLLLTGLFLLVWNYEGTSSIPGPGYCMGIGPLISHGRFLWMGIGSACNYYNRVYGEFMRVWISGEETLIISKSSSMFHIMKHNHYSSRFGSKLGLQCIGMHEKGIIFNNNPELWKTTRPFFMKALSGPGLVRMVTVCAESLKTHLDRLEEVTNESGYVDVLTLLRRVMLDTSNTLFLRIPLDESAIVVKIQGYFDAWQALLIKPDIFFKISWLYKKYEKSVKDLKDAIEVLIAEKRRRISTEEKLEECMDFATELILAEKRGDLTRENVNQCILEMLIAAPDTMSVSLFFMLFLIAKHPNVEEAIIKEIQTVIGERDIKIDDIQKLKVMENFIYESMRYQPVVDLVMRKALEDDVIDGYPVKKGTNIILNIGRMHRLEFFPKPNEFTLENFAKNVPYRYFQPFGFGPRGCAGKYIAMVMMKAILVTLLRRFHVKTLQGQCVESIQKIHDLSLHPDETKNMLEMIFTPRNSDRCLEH
# Method: as §1
# [10] = system: CYP3A; experiment: Testosterone 6β-hydroxylase in rat liver microsomes; settings: probe testosterone
# Method: as §1
compound,measurement,setting,value
"C[C@@H]([C@H](c1ccc(Nc2nc3ccccc3s2)cc1)n1ccnc1)N(C)C [R116010, [S-(R*,R*)]-N-[4-[2-(dimethylamino)-1-(1H-imidazole-1-yl)propyl]-phenyl]-2-benzothiazolamine]",growth of subcutaneous mouse Lewis lung (3LL) tumours,[1],inhibit the growth
same,MTD,[2],5 mg/kg
same,IC50,[3],0.25 µM
same,IC50,"[4]; Homo sapiens, intact T47D cells pretreated 16 h with 1 μM RA, 0.1 μM [3H]RA, 90 min, read-out: IC50 inhibition of formation of polar [3H]RA metabolites (RA metabolism)",0.0087 µM
same,fold more potent than liarozole-fumarate as inhibitor of RA metabolism,[4]; intact T47D cells,over 100 fold
same,growth of orthotopically implanted Dunning R3327/PIF-1 carcinoma cells,[5],inhibit the growth
same,change in blood hormone levels,[6],no change
same,inhibition at 10 μM,"[7]; 10 μM R116010, rat liver microsomes, read-out: percentage of inhibition, Testosterone 16β-hydroxylase (CYP2B1/2)",21%
same,IC50,[7]; Rat liver microsomes,> 10 µM
same,IC50,[8]; Rat liver microsomes,> 10 µM
same,inhibition at 10 μM,"[8]; probe testosterone (7α-hydroxylation), 10 μM R116010, rat liver microsomes, read-out: percentage of inhibition, Testosterone 7α-hydroxylase (CYP2A1)",12%
same,inhibition at 10 μM,"[9]; 10 μM R116010, human placental microsomes, read-out: percentage of inhibition, Aromatase (CYP19)",12%
same,IC50,[9]; Human placental microsomes,> 10 µM
same,IC50,[10],> 10 µM
same,inhibition at 10 μM,[10],41%
